Measurements published in a melting point compilation (Tetko et al.; mined from patent text by program, amines drawn as free bases though some values may be those of a salt).

Structure (SMILES) | melting point [°C]
Cc1nnsc1C(=O)Nc1ccc(-n2nc(C(F)(F)F)cc2C2CC2)c(F)c1 | 105 to 112
CN(C)Cc1ccc2cc(-c3nnc(CSCCOc4ccccc4)o3)ccc2c1 | 95 to 96
COc1cnc(C(=O)O)cc1Cl | 209
O=C(O)C1=Cc2cc(S(=O)(=O)Cl)ccc2OC1C(F)(F)F (stereo unspecified) | 208 to 212
NC(=O)C1(Nc2ccccc2)CCN([C@H]2CCc3ccccc32)CC1 | 194 to 195
COC1=C(OC)C(=O)C(CCCCCCCCCCCCCCCCCCCCCCO)=C(C)C1=O | 89 to 90.5
CNc1cc([N+](=O)[O-])cc([N+](=O)[O-])c1 | 153 to 154
CC(=O)OCCCC1Oc2c(C)c(C)c(OC(C)=O)c(C)c2S1 (stereo unspecified) | 78 to 79
CSc1ncc2cc(-c3c(Cl)cccc3Cl)c(=NC(C)=O)n(C)c2n1 | 229 to 231
CC(C)C(=O)Nc1nc(CN2CCN(C(c3ccccc3)c3ccccc3)CC2)cs1 | 132 to 140
CCOC(=O)c1ccc2c(c1)C(=O)C(=O)N2 | 205 to 206
ClCCCON=C(Cl)c1c(Cl)cccc1Cl | 69 to 71
Cn1ncc2c1=CC1=CC=C(N)C(=O)C=21 | 225 to 227
CN(C)C12CC3CC(CC(O)(C3)C1)C2 | 60 to 64
CCn1c(=O)c2c(-c3noc(C4CC4)n3)ncn2c2cccnc21 | 254 to 255
COc1ccc(-c2c(CO)cc(OC)c(OC)c2OC)c(CO)c1OS(C)(=O)=O | 124 to 126
C#CCOc1cc(N2C(=O)c3ccccc3C2=O)c(F)cc1C#N | 242
Nc1cccc2c1C(=O)N([C@@H]1CCC(=O)NC1=O)C2=O | 308 to 310
CC(=O)NC[C@H]1CN(c2ccc(C(=O)c3cnc4cnccn34)cc2)C(=O)O1 | 254 to 256
CC(=O)Nc1cscn1 | 176
CCC(CC)Nc1c([N+](=O)[O-])cc(C)c(COC(C)=O)c1[N+](=O)[O-] | 47 to 49

Structure (SMILES) | melting point [°C]
CC1=CC(=O)CC2CCC3C4C(C#N)CC(=O)C4(C)CCC3C12C (stereo unspecified) | 193
COC(=O)C=Cc1ccc(C=CC(=O)OC)cc1 | 163 to 167
CCCCOc1c(OC)c(OC)cc(C)c1C(=O)c1c(Cl)cccc1Cl | 70
N[C@@H](Cc1cn(Cc2ccccc2)cn1)C(=O)O | 234 to 238
CCCN1CCC23c4cccc(OC)c4OC2C2CCC3(C1)C(COC)C2 (stereo unspecified) | 130 to 131
O=C1NC(=S)NC1=Cc1cc(O)c(O)c(Cl)c1 | 303 to 304
COc1ccccc1CNCc1c(-c2ccccc2)c2cc(C)c(C)cc2c(=O)n1C | 159 to 160
CCOC(Nc1ccccc1)(OCC)C1(F)C=CN=C(C(=O)c2ccc(Cl)cc2)C1 (stereo unspecified) | 96 to 97
O=Cc1cc(-c2ccccc2F)n(S(=O)(=O)c2cccnc2)c1 | 106 to 108
C=C(CCC(C)C1CCC2(O)C3=C(C(=O)CC12C)C1(C)CCC(=O)C(C)C1CC3O)C(C)C(=O)O (stereo unspecified) | 175 to 177
COc1cc(C2CCN(C[C@H](O)CO)CC2)ccc1Nc1ncc2ccc(-c3cccc(S(=O)(=O)NC(C)(C)C)c3)n2n1 | 192 to 220
O=C(OCCN1CCCC1)c1ccccc1Nc1ccnc2cc(Cl)ccc12 | 102 to 104
COc1cc(C(C)=O)ccc1OC(C)=O | 58.7
O=C(Nc1ccc(OCCCN2CCNCC2)c2ccccc12)c1cc(F)cc(N2CCCCC2)c1 | 70 to 72
COc1ccc2c(c1)OCC21C(=O)N(Cc2cccnc2)c2ccccc21 (stereo unspecified) | 164 to 165
COc1ncc(CN2C(=O)C3(COc4cc5c(cc43)CCO5)c3ccccc32)cn1 (stereo unspecified) | 203 to 204
CCCCOC(=O)[C@H]1CN(c2ccc3c(c2)oc(=O)n3C(C)C)C(=O)O1 | 86 to 89
NC(=O)N1CC(Sc2ccc(Cl)cc2)C1 | 210 to 212
CNC(=O)Oc1ccc(NS(C)(=O)=O)c(C)c1 | 167 to 169
FC(F)(F)c1ccc(-c2cc(C(F)(F)F)n3cncc3n2)cc1 | 158
